Patent US5089506A, “Ethanobicyclic amine derivatives for CNS disorders” (G. D. Searle & Co., priority 1990, dated 1992)
Like-named read-outs stand apart in the source and are kept apart here.

Assays:
[1] = test system: NMDA receptor; conditions: C. Carter et al, J. Pharm Exp. Ther., 247(3), 1222-1232 (1988); cited from earlier work
[2] = molecular target: T1, sigma receptor (Rattus norvegicus, UniProt Q9R0C9); experiment: Radioreceptor assay: sigma receptor binding (displacement of [3H]-3-(+)-PPP) in crude rat brain membranes; parameters: species or system male Sprague-Dawley rats
T1 construct: crude membrane preparations were prepared as follows; Brains from male Sprague-Dawley rats; from tissue; host or cells: whole brain of male Sprague-Dawley rats, crude membranes
Description: To determine the effects of the compounds in a sigma receptor assay, crude membrane preparations were prepared as follows. Brains from male Sprague-Dawley rats were homogenized in 10 volumes (wt/vol) of 0.32M sucrose, using a Polytron grinder. The homogenate was centrifuged at 900×g for 10 minutes at 4° C. The supernatant was collected and centrifuged at 22,000×X g for 20 minutes at 4° C. The pellet was resuspended in 10 volumes of 50 mM Tris/HCl buffer (pH 7.4) and centrifuged at 22,000×g for 20 minutes at 4° C. The pellet was resuspended in 5 mM Tris/HCl buffer (pH 7.4) to give a final concentration of 250 mg/ml of the crude material. Incubation tubes were prepared in triplicate and contained 0.1 ml of tissue suspension, 2 nM of [^3 H]-(+)-1-propyl-3-(3-hydroxyphenyl)piperidine [^3 H]-3-(+)-PPP, and varying concentrations of the displacing ligand (0.1-1000 nM) in a final volume of 0.5 ml. After a 1 hr incubation at room temperature, the contents of the test tubes were filtered through GS filter paper which had been presoaked for at least 2 hours in 0.05% polyethyleneimine. The test tubes were rinsed three times with Tris/HCl buffer. Radioactivity on the filters was determined using liquid scintillation spectrometry and inhibition curves were calculated according to the method of Cheng and Prusoff [Biochem. Pharmacol., 22, 3099-3108 (1973)].

[3] = test system: N-allylnormetazocine-induced stereotyped behavior; experiment: Blockade of agonist (N-allylnormetazocine)-induced stereotyped behavior and ataxia; assay type: in vivo; conditions: ip, N-allylnormetazocine 15 mg/kg i.p.
Description: Compounds of the invention were evaluated for their ability to block the effects of N-allylnormetazocine on the induction of stereotyped behavior and ataxia. To test for antagonism, drugs are administered at varying times before i.p. administration of 15 mg/kg of N-allylnormetazocine. Behavioral and ataxia ratings are taken at 2.5 minutes, 5 minutes, and every 5 minutes thereafter until the animal returns to control behavior. […] The lowest dose of the test compound which is capable of blocking the stereotyped behavior and ataxia induced by N-allylnormetazocine was determined.

[4] = [3H]-3-(+)-PPP 2 nM, rat brain crude membranes, 1 hr, room temperature, ± SEM, Table II, read-out: Ki apparent (units ± SEM)
[5] = test compound i.p. (route given for the 1 mg/kg dose), read-out: dose which fully blocked N-allylnormetazocine-induced stereotyped behavior (lowest dose capable of blocking)

T1 sequence (Q9R0C9 whole entry): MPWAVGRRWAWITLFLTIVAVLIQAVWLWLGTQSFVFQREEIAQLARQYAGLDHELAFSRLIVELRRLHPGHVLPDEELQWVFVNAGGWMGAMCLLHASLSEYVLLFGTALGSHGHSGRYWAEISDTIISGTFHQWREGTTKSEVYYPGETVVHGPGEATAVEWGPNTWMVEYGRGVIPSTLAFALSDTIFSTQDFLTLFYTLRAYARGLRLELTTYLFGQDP

## 1-(4-chlorophenyl)-2-[1-(4-fluorophenyl)piperidinyl]ethanol
[1]
  found to be non-competitive NMDA receptor antagonists: non-competitive NMDA receptor antagonists

## CN1CCN(CC2CC3CCC2c2ccccc23)CC1 (centres unmarked) [Compound No. 3, 1-(2-Benzobicyclo[2.2.2]octenyl)methyl-4-methylpiperazine]
[2]; [4]
  Ki: 4 ± 2 nM
[3]; [5]
  minimal effective dose: 1 mg/kg

## c1ccc2c(c1)C1CC(CN3CCCCC3)C2C1 (centres unmarked) [Compound No. 5, 1-(2-Benzobicyclo[2.2.1]heptenyl)methylpiperidine]
[2]
  Ki: 9 ± 4 nM
[3]; [5]
  minimal effective dose: 1 mg/kg

## CN1CCN(CC2CC3CC2c2ccccc23)CC1 (centres unmarked) [Compound No. 7, 1-(2-benzobicyclo[2.2.1]-heptenyl)methyl-4-methylpiperazine]
[2]
  Ki: 22000 ± 2000 nM

## CN1CCN(C2CC3CC2c2ccccc23)CC1 (centres unmarked) [Compound No. 8, 1-(2-Benzobicyclo[2.2.1]heptenyl)-4-methylpiperazine]
[2]
  Ki: 943 ± 3 nM

## CN1CCN(C2CC3CCC2c2ccccc23)CC1 (centres unmarked) [Compound No. 4, 1-(2-benzobicyclo[2.2.2]octenyl)-4-methylpiperazine]
[2]; [4]
  Ki: 170 ± 40 nM

## c1ccc2c(c1)C1CCC2C(N2CCCCC2)C1 (centres unmarked) [Compound No. 1, 1-(2-Benzobicyclo[2.2.2]octenyl)piperidine]
[2]; [4]
  Ki: 137 ± 9 nM

## CC(C(O)c1ccc(O)cc1)N1CCC(Cc2ccccc2)CC1 (centres unmarked) [ifenprodil]
[1]
  found to be non-competitive NMDA receptor antagonists: non-competitive NMDA receptor antagonists

## c1ccc2c(c1)C1CC2C(N2CCCCC2)C1 (centres unmarked) [Compound No. 6, 1-(2-Benzobicyclo[2.2.1]heptenyl)piperidine]
[2]
  Ki: 0.075 ± 0.06 nM
[3]; read-out: dose which blocked these same responses (N-allylnormetazocine-induced stereotyped behavior; not stated as fully)
  minimal effective dose: 10 mg/kg

## c1ccc2c(c1)C1CCC2C(CN2CCCCC2)C1 (centres unmarked) [Compound No. 2, 1-(2-Benzobicyclo[2.2.2]octenyl)methylpiperidine]
[2]; [4]
  Ki: 11 ± 6 nM
[3]; [5]
  minimal effective dose: 3 mg/kg
